Results published in US12138299B2, “Aldehyde dehydrogenase producing bacteria and methods of using same” (Children's Hospital Medical Center, priority 2021, dated 2024).

Tests used:
[1] = system: C. rodentium; assay: C. rodentium infection, CFUs in stool; assay type: in vivo, mice; conditions: day 6 p.i.
Method: (§1) METHOD DETAILS C. rodentium infections Mice were orally infected with 109 colony-forming units (CFUs) of C. rodentium suspended in sterile PBS. Post-infection CFUs were measured in stool homogenized in 500 μl PBS in a Tissue Lyser II at 30 Hz for 3 min. Homogenates were serially diluted 10-fold on MacConkey agar (BD) and CFUs were counted after 16 hr incubation at 37° C., normalized to fecal weight. For RA studies, mice were orally gavaged with 300 μg RA or vehicle (DMSO) in 100 μl corn oil q.d. 5 days prior to and during the infection. For RAR inhibitor (RARi) studies, 400 μg BMS493 (Torcis Bioscience) suspended in 10% DMSO/corn oil was administered to mice via oral gavage q.o.d. over 6 days pre-infection and 6 days post-infection. For Aldh1a2 inhibition, mice were orally gavaged with 400 mg/kg of WIN 18446 (Cayman Chemical) or vehicle (DMSO) in 100 μl corn oil for 8 days q.o.d.

[2] = system: C. rodentium; assay: C. rodentium in vitro culture, bacterial density (OD600); assay type: cell-based, Citrobacter rodentium; conditions: 1 nM-10 μM RA
[3] = system: bcALDH1A1; assay: Expression of ALDH by B. cereus cultured -/+ ROL; conditions: B. cereus cultured with retinol
[4] = system: SFB; assay: SFB DNA in feces by qPCR; assay type: in vivo, mice
[5] = system: downstream gene expression; assay: Relative mRNA expression in liver of WIN18446-treated mice; assay type: in vivo; conditions: mice treated with WIN18446
Method: as §1

[6] = system: Saa1/2; assay: Saa1/2 mRNA expression in intestinal organoids; assay type: cell-based, Murine; conditions: 1 μM WIN 18446
Method: Intestinal Organoids Murine organoids were generated from ileal IECs isolated from male WT C57BL/6J mice as previously described (Woo et al., 2019; Wu et al., 2020). Dissected terminal ileums (12 cm) were opened longitudinally, scraped to remove intestinal contents and outer cells, washed repeatedly in ice-cold PBS, and cut into 1 cm pieces. Ileum pieces were incubated in Chelation Buffer (2 mM EDTA in PBS) for 30 min at 4° C. with rotation. Tissues were subsequently transferred into new tubes containing Shaking Buffer (PBS, 43.3 mM sucrose, 54.9 mM sorbitol) and gently shaken by hand for 2-4 mins. Ileal crypts were resuspended and plated in Matrigel (Corning) overlaid with 500 μl organoid culture media (60% Advanced DMEM/F12 media supplemented with 10 mM HEPES, 2 mM […], 40% L-WRN conditioned media, 1×N2 supplement, 1×B27 supplement, 50 ng/mL murine EGF, and 10 μM Y-27632 ROCK inhibitor). Culture media was refreshed every 3-4 days. Organoid cultures were treated with 1 μM Aldh1a2 inhibitor WIN 18446 (Cayman Chemical) for 12 hours and then stimulated with 100 μl of SFB contents at 150 mg/ml PBS for 24 hours. For bacterial culture treatments in organoids, 100 μl of liquid cultures were directly added to organoids containing 1 μM retinol for 24 hours. After incubation, organoids were washed 3 times in PBS and lysed using the RNeasy kit (Qiagen).

[7] = system: mammalian ALDH; assay: Aldehyde dehydrogenase activity in mouse tissues; assay type: in vivo; conditions: liver of mice treated with WIN18446, 400 mg/kg oral gavage q.o.d. 8 days
Method: as §1, with “For Aldh1a2 inhibition, mice were orally gavaged with 400 mg/kg of WIN 18446 (Cayman Chemical) or vehicle (DMSO) in 100 μl corn oil for 8 days q.o.d.” left out
Aldehyde dehydrogenase activity Samples were homogenized in ice-cold ALDH assay buffer (Sigma, MAK082) for 3 min at 30 Hz and spun down at 13,000×g for 10 min. ALDH activity was measured according to manufacturer's instructions (Sigma, MAK082). Briefly, 50 μl of supernatants with equal protein concentrations determined using Pierce BCA Protein Assay Kit (Thermo Scientific) were combined with ALDH substrate and acetaldehyde in 96-well plates. […] Enzymatic activity was calculated as a function of amount NADH generated over time.

SMILES: CC1=C(/C=C/C(C)=C/C=C/C(C)=C/C(=O)O)C(C)(C)CCC1 [RA, all-trans retinoic acid]
- Protection against C. rodentium (CFUs in stool) ([1]; GF mice, 300 μg RA oral gavage q.d. prior to and during infection): sufficient to protect GF mice against C. rodentium
- C. rodentium pathogen levels (CFUs in stool) ([1]; Nos2−/− mice, exogenous RA): did not alter pathogen levels
- C. rodentium infection (CFUs in stool) ([1]; WT mice, exogenous RA): decreased C. rodentium infection
- C. rodentium infection (CFUs in stool) ([1]; control dnRAR^FF mice, RA-treatment): decreased infection
- RA-induced protection against C. rodentium ([1]; dnRAR^IEC mice, RA-treatment): greatly reduced
- C. rodentium growth and viability [2]: not directly impaired

SMILES: CC1=C(/C=C/C(C)=C/C=C/C(C)=C/CO)C(C)(C)CCC1 [retinol, all-trans retinol]
- bcALDH1A1 expression by B. cereus [3]: increased bcALDH1A1 expression

SMILES: CC1(C)CC=C(C#Cc2ccccc2)c2cc(/C=C/c3ccc(C(=O)O)cc3)ccc21 [BMS493]
- SFB colonization (SFB DNA in feces) ([4]; RARi (BMS493) treatment, 400 μg oral gavage q.o.d.): did not alter SFB colonization
- C. rodentium pathogen levels (CFUs in stool) ([1]; GF mice treated with RARi): largely unaffected
- Protective effect of SFB against C. rodentium (CFUs in stool) ([1]; SFB-colonized mice treated with RARi): abrogated the protective effect of SFB against C. rodentium

SMILES: O=C(NCCCCCCCCNC(=O)C(Cl)Cl)C(Cl)Cl [WIN18446]
- Downstream gene expression (relative mRNA in liver) [5]: decreased
- Basal Saa1/2 expression in intestinal organoids [6]: decreased basal Saa1/2 expression
- SFB levels in the intestine (SFB DNA in feces) ([4]; following WIN18446 administration): similar
- Mammalian ALDH enzymatic activity [7]: decreased mammalian ALDH enzymatic activity
